# According to ChEMBL document CHEMBL1201862, “PubChem BioAssay data set” (2004):
# Activity calls are given as the source filed them. Cut-off read from the data, not from the text of the source, for most assays here: actives have a measured EC50 and inactives only a lower limit.
# Experiments:
# [1] = molecular target: T1, Heat shock factor protein 1 (Mus musculus, UniProt P38532); experiment: inhibition of MG132-induced HSE-luciferase signal, confirmation, cell-based, NIH3T3, luminescence, dose retest (AID 2382); type: functional;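 note: NIH3T3 fibroblasts with HSF1-driven luciferase reporter stressed by proteasome inhibitor MG132; luminescence from HSF1-driven luciferase expression after 8 hours of MG132 stress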
# T1 sequence (P38532 whole entry): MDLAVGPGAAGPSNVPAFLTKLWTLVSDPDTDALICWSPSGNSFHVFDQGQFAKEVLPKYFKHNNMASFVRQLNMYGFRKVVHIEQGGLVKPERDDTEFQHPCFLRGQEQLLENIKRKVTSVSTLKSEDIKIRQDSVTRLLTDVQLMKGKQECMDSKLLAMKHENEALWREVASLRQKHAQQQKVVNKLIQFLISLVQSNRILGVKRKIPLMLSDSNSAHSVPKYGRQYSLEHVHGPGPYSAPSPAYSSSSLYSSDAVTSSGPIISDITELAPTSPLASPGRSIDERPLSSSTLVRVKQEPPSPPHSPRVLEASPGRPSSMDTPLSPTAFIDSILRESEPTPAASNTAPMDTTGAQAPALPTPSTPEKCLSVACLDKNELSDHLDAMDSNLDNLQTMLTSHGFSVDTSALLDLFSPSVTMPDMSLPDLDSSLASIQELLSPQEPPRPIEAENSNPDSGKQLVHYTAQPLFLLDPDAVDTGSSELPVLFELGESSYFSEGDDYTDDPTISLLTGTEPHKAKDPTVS
# [2] = tested on: Streptococcus sp. 'group A'; experiment: growth inhibition of control SK(-) GAS strain, dose response, counter-screen for streptokinase expression inhibitor project, luminescence, kanamycin, BacTiterGlo, confirmation (AID 1900); type: functional, organism-based
# Streptococcus = experiment: Group A Streptococcus viability loss, dose response, counter-screen for streptokinase expression inhibitor project, luminescence, BacTiterGlo (AID 1915); type: functional, organism-based;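 note: potency for reduction of bacterial viability or growth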
# Cytochrome P450 2D6 = Cytochrome P450 2D6 (Homo sapiens, UniProt P10635);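 note: CYP2D6 member of a cytochrome P450 panel assay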
# Cytochrome P450 2D6, sequence (P10635 whole entry): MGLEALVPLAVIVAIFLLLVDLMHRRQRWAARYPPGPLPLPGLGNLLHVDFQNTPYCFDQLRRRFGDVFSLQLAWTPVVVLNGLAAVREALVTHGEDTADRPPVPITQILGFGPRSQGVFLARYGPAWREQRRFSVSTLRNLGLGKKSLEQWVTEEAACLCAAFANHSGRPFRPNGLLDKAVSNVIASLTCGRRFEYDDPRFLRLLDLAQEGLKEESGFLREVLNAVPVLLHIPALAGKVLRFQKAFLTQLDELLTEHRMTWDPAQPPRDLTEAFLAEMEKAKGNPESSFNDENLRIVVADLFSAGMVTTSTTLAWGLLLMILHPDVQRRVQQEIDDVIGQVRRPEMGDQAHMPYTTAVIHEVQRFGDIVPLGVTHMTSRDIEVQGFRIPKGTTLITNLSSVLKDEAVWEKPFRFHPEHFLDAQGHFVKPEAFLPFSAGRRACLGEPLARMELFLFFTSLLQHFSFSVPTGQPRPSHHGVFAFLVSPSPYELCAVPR
# Streptokinase A = molecular target: T2, Streptokinase A (Streptococcus pyogenes serotype M1, UniProt P10520); experiment: S. pyogenes streptokinase expression inhibitors, potency, dose response, plasminogen activation absorbance, OD405 (AID 1914); type: functional, Streptococcus pyogenes M1 GAS;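 note: secreted streptokinase activity via plasminogen activation per viability signal from cell pellet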
# T2 sequence (P10520 whole entry): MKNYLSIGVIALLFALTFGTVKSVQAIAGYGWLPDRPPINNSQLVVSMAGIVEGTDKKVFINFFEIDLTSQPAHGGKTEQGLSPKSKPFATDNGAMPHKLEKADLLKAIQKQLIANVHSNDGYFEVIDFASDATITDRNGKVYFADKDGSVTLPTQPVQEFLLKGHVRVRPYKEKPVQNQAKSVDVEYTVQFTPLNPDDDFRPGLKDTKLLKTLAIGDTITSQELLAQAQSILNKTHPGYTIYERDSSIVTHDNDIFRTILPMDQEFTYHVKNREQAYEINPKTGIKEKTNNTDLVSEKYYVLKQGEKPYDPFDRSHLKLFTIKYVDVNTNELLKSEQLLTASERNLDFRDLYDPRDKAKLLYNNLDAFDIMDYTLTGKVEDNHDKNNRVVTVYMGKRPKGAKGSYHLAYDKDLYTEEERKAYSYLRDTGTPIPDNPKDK
# Cytochrome P450 3A4 = Cytochrome P450 3A4 (Homo sapiens, UniProt P08684);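 note: CYP3A4 tested as one member of a cytochrome P450 panel screen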
# Cytochrome P450 3A4, sequence (P08684 whole entry): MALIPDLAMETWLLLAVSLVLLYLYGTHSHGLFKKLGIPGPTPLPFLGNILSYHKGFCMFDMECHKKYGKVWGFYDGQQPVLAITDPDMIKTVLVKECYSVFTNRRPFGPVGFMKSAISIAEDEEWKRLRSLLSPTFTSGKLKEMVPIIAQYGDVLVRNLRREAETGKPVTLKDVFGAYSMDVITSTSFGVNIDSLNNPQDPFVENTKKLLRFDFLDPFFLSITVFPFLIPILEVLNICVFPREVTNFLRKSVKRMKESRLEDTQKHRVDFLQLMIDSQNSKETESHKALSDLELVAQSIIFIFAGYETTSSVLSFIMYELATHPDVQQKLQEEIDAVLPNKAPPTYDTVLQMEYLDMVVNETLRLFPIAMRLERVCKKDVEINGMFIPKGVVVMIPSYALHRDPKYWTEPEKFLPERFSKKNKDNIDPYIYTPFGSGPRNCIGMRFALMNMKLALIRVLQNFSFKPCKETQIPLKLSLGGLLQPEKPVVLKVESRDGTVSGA
# [3] = molecular target: T3, Replicative DNA helicase DnaB (Mycobacterium tuberculosis, UniProt P9WMR3); experiment: DnaB intein splicing inhibitors, dose response, biochemical, cell-free fluorescence (AID 449749); type: functional
# T3 sequence (P9WMR3 whole entry): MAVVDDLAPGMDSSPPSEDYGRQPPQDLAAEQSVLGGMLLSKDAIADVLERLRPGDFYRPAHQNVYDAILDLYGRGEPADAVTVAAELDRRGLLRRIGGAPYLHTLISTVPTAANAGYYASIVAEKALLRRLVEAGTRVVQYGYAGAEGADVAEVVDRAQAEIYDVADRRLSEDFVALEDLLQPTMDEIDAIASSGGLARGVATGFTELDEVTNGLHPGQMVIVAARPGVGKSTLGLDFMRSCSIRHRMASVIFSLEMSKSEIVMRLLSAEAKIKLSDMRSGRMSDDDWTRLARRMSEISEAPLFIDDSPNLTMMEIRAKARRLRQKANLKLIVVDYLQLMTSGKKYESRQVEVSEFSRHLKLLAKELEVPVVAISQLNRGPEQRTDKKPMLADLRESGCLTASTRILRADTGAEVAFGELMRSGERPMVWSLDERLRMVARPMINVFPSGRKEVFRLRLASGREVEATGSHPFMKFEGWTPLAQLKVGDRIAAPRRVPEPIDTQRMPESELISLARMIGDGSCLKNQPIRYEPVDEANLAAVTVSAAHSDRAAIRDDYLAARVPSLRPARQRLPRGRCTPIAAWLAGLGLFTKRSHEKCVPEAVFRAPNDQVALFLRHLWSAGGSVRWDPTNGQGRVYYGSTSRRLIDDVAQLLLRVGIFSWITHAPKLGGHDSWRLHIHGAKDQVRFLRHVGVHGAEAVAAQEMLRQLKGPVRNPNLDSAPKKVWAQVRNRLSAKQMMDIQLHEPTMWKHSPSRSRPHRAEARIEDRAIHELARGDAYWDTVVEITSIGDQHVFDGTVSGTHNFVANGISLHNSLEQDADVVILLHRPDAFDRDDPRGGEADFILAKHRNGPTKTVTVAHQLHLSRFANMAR
# Protein RecA = molecular target: T4, Protein RecA (Mycobacterium tuberculosis, UniProt P9WHJ3); experiment: Fluorescence Cell-Free Homogeneous Dose Retest to Identify Inhibitors of RecA-Intein Splicing Activity. [Related pubchem assays (depositor defined):AID2097, AID2223, AID489010, AID492950]; type: functional
# T4 sequence (P9WHJ3 whole entry): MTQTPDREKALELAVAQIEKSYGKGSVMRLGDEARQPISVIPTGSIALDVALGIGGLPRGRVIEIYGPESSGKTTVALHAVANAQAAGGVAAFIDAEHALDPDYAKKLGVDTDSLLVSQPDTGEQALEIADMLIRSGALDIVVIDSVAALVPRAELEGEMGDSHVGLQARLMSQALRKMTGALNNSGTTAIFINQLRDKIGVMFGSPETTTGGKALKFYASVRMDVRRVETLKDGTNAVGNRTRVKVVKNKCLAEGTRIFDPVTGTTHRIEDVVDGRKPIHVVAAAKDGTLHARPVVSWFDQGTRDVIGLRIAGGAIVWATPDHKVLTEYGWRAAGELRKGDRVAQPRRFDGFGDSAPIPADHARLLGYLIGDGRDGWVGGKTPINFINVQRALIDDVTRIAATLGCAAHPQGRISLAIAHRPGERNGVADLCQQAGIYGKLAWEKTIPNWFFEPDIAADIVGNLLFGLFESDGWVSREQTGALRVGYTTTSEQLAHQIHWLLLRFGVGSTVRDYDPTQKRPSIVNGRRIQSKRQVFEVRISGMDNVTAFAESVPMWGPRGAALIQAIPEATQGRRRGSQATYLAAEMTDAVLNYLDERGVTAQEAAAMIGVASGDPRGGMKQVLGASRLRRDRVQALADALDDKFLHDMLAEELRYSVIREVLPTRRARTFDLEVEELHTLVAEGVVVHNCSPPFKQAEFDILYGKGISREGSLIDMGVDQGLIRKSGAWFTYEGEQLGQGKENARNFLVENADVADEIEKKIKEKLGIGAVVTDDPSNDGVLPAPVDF
# H4 = experiment: Luminescence Cell-Based Dose Response HTS to Identify Activators of 5'UTR Stem-Loop Driven Prion Protein mRNA Translation in H4 Neuroglioblastoma Cells. [Related pubchem assays: 1829 (Project Summary), 1814 (Primary HTS)]; type: functional; conditions: Homo sapiens
# [4] = Luminescence Cell-Based Dose Response HTS to Identify Activators of Luciferase Translation or Activity in H4 […] Cells. [Related pubchem assays: 1829 (Project Summary), 1814 (Primary HTS)]; type: functional
Structure (SMILES),EC50 [1],EC50 [2],EC50 (Streptococcus),EC50 (Streptokinase A),also measured
O=C(CN1C(=O)NC(Cc2ccccc2)C1=O)Nc1ccc(OC(F)F)cc1 (stereo not drawn),> 195 µM (not active),–,–,–,–
O=C(Nc1ncc(Cc2cccc(Cl)c2)s1)c1cccs1,–,3.67 µM (active),7.17 µM (active),> 150 µM (not active),AC50 (Cytochrome P450 2D6): 7.08 µM (inconclusive); AC50 (Cytochrome P450 3A4): 15.8 µM (inconclusive)
CCOc1ccc(N(CC(=O)NN=C2CCCC2)S(C)(=O)=O)cc1,> 195 µM (not active),–,–,–,–
ClCc1nnc(-c2cc3c(s2)CCCC3)o1,–,–,–,–,AC50 [3]: 10.7 µM (active); EC50 (Protein RecA): 3.55 µM (active)
COCCn1c(N)c(Sc2ccccc2[N+](=O)[O-])c(=O)[nH]c1=O,> 195 µM (not active),–,–,–,–
COc1ccc(CCNCc2ccsc2)cc1OC,> 195 µM (not active),–,–,–,–
CN(CC(=O)Nc1ccc(F)cc1)C(=O)COC(=O)c1cc(S(=O)(=O)N(C)C)ccc1N1CCCC1,> 195 µM (not active),–,–,–,–
Cc1onc(-c2ccccc2Cl)c1C(=O)Nc1ccc(OCC(=O)N2CCOCC2)cc1,> 195 µM (not active),–,–,–,–
CCOC(=O)c1ccc(CC2S/C(=C(\C#N)C(C)=O)NC2=O)cc1 (stereo not drawn),–,–,–,–,AC50 [3]: > 380 µM (inactive); EC50 (Protein RecA): > 380 µM (inactive)
CCCn1c(N2CCN(CC(=O)NCc3cccs3)CC2)nc2ccccc21,> 195 µM (not active),–,–,–,–
CCCCN(C(=O)c1cccc2c(=O)c(C)c(-c3ccccc3)oc12)c1ccccc1,–,–,–,–,AC50 [3]: 4.15 µM (active); EC50 (Protein RecA): 15.2 µM (active)
COc1ccc(-c2cc(C3CCN(c4ncccc4[N+](=O)[O-])CC3)[nH]n2)cc1,–,4.96 µM (active),13 µM (active),> 150 µM (not active),–
CCOC(=O)/C=c1\s/c(=C(\C#N)C(N)=O)n(-c2ccccc2)c1=O,–,–,–,–,AC50 [3]: 9.68 µM (active); EC50 (Protein RecA): > 380 µM (inconclusive)
COc1ccc(C2/C(=C(\O)c3ccccc3)C(C)=Nc3nc4ccccc4n32)c(OC)c1 (stereo not drawn),–,14.5 µM (active),37.3 µM (active),> 150 µM (not active),–
Clc1ccc2[nH]c(-c3ccc(Cl)nc3)nc2c1,–,–,–,–,EC50 (H4): > 120 µM (not active); EC50 [4]: 22.3 µM (active)
CCOC(=O)c1cccc(NC(=S)N2CCN(c3ncc4c(=O)c(C(=O)O)cn(CC)c4n3)CC2)c1,–,5.98 µM (active),29.9 µM (active),> 150 µM (not active),–
COc1cc(/C=C2/C(=O)N(c3ccc(Br)cc3)N=C2C)cc(OC)c1OC,–,–,–,–,AC50 [3]: 4.08 µM (active); EC50 (Protein RecA): 12.4 µM (active)
CNC(=O)c1ccsc1NC(=O)c1ccc(Cl)s1,> 195 µM (not active),–,–,–,–

Structure (SMILES),EC50 [1],EC50 [2],EC50 (Streptococcus),EC50 (Streptokinase A),also measured
CCn1c(SCC(=O)N2CC(C)OC(C)C2)nc2c3ccccc3nc-2c1O (stereo not drawn),–,> 150 µM (not active),> 150 µM (not active),> 150 µM (not active),–
C=CCSc1nc(-c2ccccc2)c2cc(Cl)ccc2n1,–,15 µM (active),46.4 µM (active),29.4 µM (active),–
Oc1cc(-c2ccccc2)n[nH]1,–,–,–,–,AC50 [3]: 1.43 µM (active); EC50 (Protein RecA): 0.517 µM (active)
COc1ccc(C(=O)CSc2nnc(CNC(=O)c3ccc(S(=O)(=O)N(C)C)cc3)o2)cc1,–,> 150 µM (not active),> 150 µM (not active),> 150 µM (not active),–
COc1ccc(CCNCC(O)Cn2ccc3ccccc32)cc1OC (stereo not drawn),> 100 µM (not active),–,–,–,–
CCN(c1ccc(OC)cc1)S(=O)(=O)c1nnc(NC(=O)c2ccccc2Cl)s1,–,9.51 µM (active),99.3 µM (active),5.58 µM (active),–
CN1CCN(S(=O)(=O)c2ccc(Oc3ccc(F)c(Cl)c3)nc2)CC1,> 195 µM (not active),–,–,–,–
CCN(CC(=O)Nc1ccccc1C(F)(F)F)C(=O)c1cc(-c2ccccc2)nn1-c1ccccc1,–,19.9 µM (active),> 150 µM (not active),23.9 µM (active),–
O=C(OC(C(=O)NC1CCCC1)c1ccncc1)C1=Cc2ccccc2OC1 (stereo not drawn),> 195 µM (not active),–,–,–,–
O=C(c1cc(Br)c[nH]1)N1CCSCC1,> 195 µM (not active),–,–,–,–
O=C(CSc1nnc(CNC(=O)c2ccc(F)cc2)o1)NCc1ccccc1,–,> 150 µM (not active),> 150 µM (not active),> 150 µM (not active),–
Cc1cc(=O)n2nc(-c3ccc(C(F)(F)F)cc3)sc2n1,> 195 µM (not active),–,–,–,EC50 (H4): 8.75 µM (active); EC50 [4]: > 120 µM (not active)
COc1cccc(-n2nc(-c3ccnn3-c3cccc(Cl)c3)c(=O)n(C)c2=O)c1,> 195 µM (not active),–,–,–,–
CCCCOc1ccc(/N=C/c2ccc[nH]2)cc1,33 µM (active),–,–,–,–
Cc1cc(C)c2c(n1)sc1c(O)nc(SCc3ccccc3)nc12,> 195 µM (not active),–,–,–,–
COc1ccc(/C(C)=N/NC(=O)CNC(=O)/C=C\c2ccccc2)c(OC)c1,> 195 µM (not active),–,–,–,–
Cc1ccc(Cn2c(=O)n(Cc3ccco3)c(=O)c3ccccc32)cc1,–,21.1 µM (active),> 150 µM (not active),> 150 µM (not active),–
